Data reported in PubChem BioAssay AID248 (DTP/NCI, 2004).
Values joined by “and” are separate entries in the source; they are usually repeats but may differ in a detail not shown here. Equal entries are not always repeated. Inconclusive results and toxic doses are left out. Cut-off read from the data, not from the text of the source: active = T/C of 150% or more; inactive = T/C below 125%.

Test system: L1210 leukemia ip in BDF1 mice, survival T/C
Experiment: NCI In Vivo Anticancer Drug Screen. Data for tumor model L1210 Leukemia (intraperitoneal) in B6D2F1 (BDF1) mice
Details: endpoint: mean survival time, higher = longer survival
Outline: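 Transplanted-tumor mice were given test agent; controls received vehicle only. Survival readings from the two groups were divided (treated over control).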

[1] = dose: 75.0 mg/kg/injection, schedule: Q01DX001 (ip), vehicle: saline
[2] = dose: 150.0 mg/kg/injection, schedule: Q01DX001 (ip), vehicle: saline
[3] = dose: 100.0 mg/kg/injection, schedule: Q01DX001 (ip), vehicle: carboxymethylcellulose (CMC)
[4] = dose: 200.0 mg/kg/injection, schedule: Q01DX001 (ip), vehicle: carboxymethylcellulose (CMC)
[5] = dose: 400.0 mg/kg/injection, schedule: Q01DX001 (ip), vehicle: carboxymethylcellulose (CMC)
[6] = dose: 100.0 mg/kg/injection, schedule: Q01DX001 (ip), vehicle: saline
[7] = dose: 200.0 mg/kg/injection, schedule: Q01DX001 (ip), vehicle: saline
[8] = dose: 400.0 mg/kg/injection, schedule: Q01DX001 (ip), vehicle: saline
[9] = dose: 50.0 mg/kg/injection, schedule: Q01DX001 (ip), vehicle: saline
[10] = dose: 100.0 mg/kg/injection, schedule: Q01DX009 (ip), vehicle: Klucel (hydroxypropylcellulose) (HPC)
[11] = dose: 200.0 mg/kg/injection, schedule: Q01DX009 (ip), vehicle: Klucel (hydroxypropylcellulose) (HPC)
[12] = dose: 400.0 mg/kg/injection, schedule: Q01DX009 (ip), vehicle: Klucel (hydroxypropylcellulose) (HPC)
[13] = dose: 100.0 mg/kg/injection, schedule: Q04DX003 (ip), vehicle: saline
[14] = dose: 100.0 mg/kg/injection, schedule: Q04DX002 (ip), vehicle: Klucel (hydroxypropylcellulose) (HPC)
[15] = dose: 200.0 mg/kg/injection, schedule: Q04DX002 (ip), vehicle: Klucel (hydroxypropylcellulose) (HPC)
[16] = dose: 400.0 mg/kg/injection, schedule: Q04DX002 (ip), vehicle: Klucel (hydroxypropylcellulose) (HPC)

Measured: T/C

O=S(=O)(OCC1CO1)c1ccc(Cl)c(Cl)c1 (stereo not drawn)
inactive: dose: 100.0 mg/kg/injection, schedule: Q01DX008 (ip), vehicle: Klucel (hydroxypropylcellulose) (HPC) 96 % of control | dose: 200.0 mg/kg/injection, schedule: Q01DX008 (ip), vehicle: Klucel (hydroxypropylcellulose) (HPC) 102 % of control | dose: 400.0 mg/kg/injection, schedule: Q01DX008 (ip), vehicle: Klucel (hydroxypropylcellulose) (HPC) 106 % of control

COC(=O)c1cc2ccccc2cc1OCC(=O)NCc1ccc(Cl)cc1
inactive: dose: 50.0 mg/kg/injection, schedule: Q01DX001 (ip), vehicle: Klucel (hydroxypropylcellulose) (HPC) 105 % of control | dose: 100.0 mg/kg/injection, schedule: Q01DX001 (ip), vehicle: Klucel (hydroxypropylcellulose) (HPC) 94 % of control | dose: 200.0 mg/kg/injection, schedule: Q01DX001 (ip), vehicle: Klucel (hydroxypropylcellulose) (HPC) 97 % of control

C[n+]1cccc(C(=O)NCCc2c[nH]c3ccccc23)c1
inactive: [1] 96 % of control | [2] 104 % of control

ClCCN(CCCl)c1ccc(C=Nc2ccc(-c3ccccn3)cc2)cc1
inactive: dose: 50.0 mg/kg/injection, schedule: Q01DX001 (ip), vehicle: carboxymethylcellulose (CMC) 102 % of control | [3] 96 % of control | [4] 91 % of control | [5] 100 % of control

OC12CCCCC1Oc1ccc3ccccc3c12 (stereo not drawn)
inactive: [6] 103 % of control | [7] 113 % of control | [8] 100 % of control

Nc1cc(=O)[nH]c(=S)n1-c1ccc(I)cc1
inactive: [9] 100 % of control | [6] 106 % of control | [7] 102 % of control | [8] 100 % of control

CC1CN1P(=O)(Oc1cccc2ccccc12)N1CC1C (stereo not drawn)
inactive: [9] 96 % of control | [6] 100 % of control | dose: 178.0 mg/kg/injection, schedule: Q01DX001 (ip), vehicle: saline 101 % of control and 109 % of control | [7] 113 % of control | dose: 267.0 mg/kg/injection, schedule: Q01DX001 (ip), vehicle: saline 101 % of control and 103 % of control | [8] 101 % of control and 104 % of control | dose: 600.0 mg/kg/injection, schedule: Q01DX001 (ip), vehicle: saline 110 % of control and 116 % of control

CC(=O)c1ccc(NC(N)=S)cc1
inactive: dose: 5.0 mg/kg/injection, schedule: Q01DX009 (ip), vehicle: saline with Tween-80 88 % of control | dose: 10.0 mg/kg/injection, schedule: Q01DX009 (ip), vehicle: saline with Tween-80 98 % of control | dose: 20.0 mg/kg/injection, schedule: Q01DX009 (ip), vehicle: saline with Tween-80 103 % of control and 90 % of control | dose: 40.0 mg/kg/injection, schedule: Q01DX009 (ip), vehicle: saline with Tween-80 97 % of control and 104 % of control | dose: 80.0 mg/kg/injection, schedule: Q01DX009 (ip), vehicle: saline with Tween-80 91 % of control

OCCOC1CCCCC=C1Br (stereo not drawn)
inactive: dose: 100.0 mg/kg/injection, schedule: Q04DX003 (ip), vehicle: saline with Tween-80 113 % of control | dose: 200.0 mg/kg/injection, schedule: Q04DX003 (ip), vehicle: saline with Tween-80 110 % of control | dose: 400.0 mg/kg/injection, schedule: Q04DX003 (ip), vehicle: saline with Tween-80 102 % of control

C1CCCC(=[N+]2CCCC2)CCC1
inactive: dose: 100.0 mg/kg/injection, schedule: Q01DX009 (ip), vehicle: saline 100 % of control

CN(C)c1ccc(C=Nc2ccccc2O)cc1
inactive: [6] 107 % of control | [7] 96 % of control | [8] 97 % of control

CSc1ccc(NC(=O)Nc2cccc(C)c2C)cc1
inactive: [10] 92 % of control | [11] 95 % of control | [12] 103 % of control

O=CC(S)CO (stereo not drawn)
inactive: [7] 103 % of control | [8] 97 % of control | dose: 800.0 mg/kg/injection, schedule: Q01DX001 (ip), vehicle: saline 108 % of control

CC12CCc3oc(-c4ccccc4)cc3C1=CCCC2=O (stereo not drawn)
inactive: dose: 100.0 mg/kg/injection, schedule: Q01DX001 (ip), vehicle: saline with Tween-80 102 % of control | dose: 200.0 mg/kg/injection, schedule: Q01DX001 (ip), vehicle: saline with Tween-80 94 % of control | dose: 400.0 mg/kg/injection, schedule: Q01DX001 (ip), vehicle: saline with Tween-80 96 % of control

COc1ccc2c(c1)CC/C(=C\c1cccnc1)C2=O
inactive: dose: 100.0 mg/kg/injection, schedule: Q04DX003 (ip), vehicle: carboxymethylcellulose (CMC) 110 % of control | dose: 200.0 mg/kg/injection, schedule: Q04DX003 (ip), vehicle: carboxymethylcellulose (CMC) 96 % of control | dose: 400.0 mg/kg/injection, schedule: Q04DX003 (ip), vehicle: carboxymethylcellulose (CMC) 94 % of control

CCCCNC(C)(C)C(S)c1ccc(Cl)cc1 (stereo not drawn)
inactive: dose: 12.0 mg/kg/injection, schedule: Q01DX009 (ip), vehicle: Klucel (hydroxypropylcellulose) (HPC) 104 % of control | dose: 25.0 mg/kg/injection, schedule: Q01DX009 (ip), vehicle: Klucel (hydroxypropylcellulose) (HPC) 108 % of control

COc1cc(C(=O)N(C)OC)cc(OC)c1OC
inactive: [3] 96 % of control | [4] 91 % of control | [5] 100 % of control

CCOC(=O)C12CCCC(C1=O)[N+](CC)(CC)CC2 (stereo not drawn)
inactive: [1] 100 % of control | [2] 101 % of control

OCC1C(CO)C2(Cl)C(Cl)=C(Cl)C1(Cl)C2(Cl)Cl (stereo not drawn)
inactive: [10] 90 % of control | [13] 94 % of control | [11] 100 % of control | dose: 200.0 mg/kg/injection, schedule: Q04DX003 (ip), vehicle: saline 101 % of control | [12] 111 % of control | dose: 400.0 mg/kg/injection, schedule: Q04DX003 (ip), vehicle: saline 99 % of control

NC(=N\C1=NCCN1)/C(N)=N/C1=NCCN1
inactive: dose: 100.0 mg/kg/injection, schedule: Q04DX002 (ip), vehicle: gum acacia 89 % of control | dose: 200.0 mg/kg/injection, schedule: Q04DX002 (ip), vehicle: gum acacia 100 % of control | dose: 400.0 mg/kg/injection, schedule: Q04DX002 (ip), vehicle: gum acacia 97 % of control

COc1ccc(/C=N/NC(=O)c2ccc(N)cc2)cc1
inactive: [14] 106 % of control | [15] 100 % of control | [16] 95 % of control

c1ccc([As]2c3ccccc3Nc3ccccc32)cc1
inactive: dose: 100.0 mg/kg/injection, schedule: Q04DX002 (ip), vehicle: saline with Tween-80 89 % of control | dose: 200.0 mg/kg/injection, schedule: Q04DX002 (ip), vehicle: saline with Tween-80 86 % of control | dose: 400.0 mg/kg/injection, schedule: Q04DX002 (ip), vehicle: saline with Tween-80 86 % of control

CCN(CC)CC
inactive: [14] 98 % of control | [15] 109 % of control | [16] 103 % of control

CCOC(=O)c1ccccc1C(=O)c1ccccc1
inactive: [14] 118 % of control | [15] 100 % of control | [16] 95 % of control

O=C(O)C(CSC(c1ccccc1)(c1ccccc1)c1ccccc1)NSc1ccccc1[N+](=O)[O-] (stereo not drawn)
inactive: [10] 114 % of control | dose: 100.0 mg/kg/injection, schedule: Q04DX003 (ip), vehicle: Klucel (hydroxypropylcellulose) (HPC) 98 % of control | dose: 175.0 mg/kg/injection, schedule: Q01DX009 (ip), vehicle: Klucel (hydroxypropylcellulose) (HPC) 98 % of control | [11] 121 % of control | dose: 200.0 mg/kg/injection, schedule: Q04DX003 (ip), vehicle: Klucel (hydroxypropylcellulose) (HPC) 102 % of control | dose: 265.0 mg/kg/injection, schedule: Q01DX009 (ip), vehicle: Klucel (hydroxypropylcellulose) (HPC) 100 % of control | [12] 110 % of control | dose: 400.0 mg/kg/injection, schedule: Q04DX003 (ip), vehicle: Klucel (hydroxypropylcellulose) (HPC) 95 % of control

COC(=O)C#CCCC#CC(C)=O
inactive: dose: 18.0 mg/kg/injection, schedule: Q04DX002 (ip), vehicle: gum acacia 96 % of control | dose: 37.0 mg/kg/injection, schedule: Q04DX002 (ip), vehicle: gum acacia 107 % of control | dose: 75.0 mg/kg/injection, schedule: Q04DX002 (ip), vehicle: gum acacia 102 % of control and 104 % of control

Cc1cc(C)c(C(=O)OCCN(C)C)c(C)c1
inactive: [1] 110 % of control | [2] 98 % of control

COc1ccc(CC(C)=O)cc1
inactive: dose: 50.0 mg/kg/injection, schedule: Q04DX003 (ip), vehicle: saline 96 % of control | [13] 105 % of control
